# What was measured:
# Assay type in all cases: cell-based
# [1] = system: Saccharomyces cerevisiae ATCC 9763; experiment: Antifungal assay, S. cerevisiae; conditions: ATCC9763, 24 °C, 48 h, read visually
# Description: (§1) To ascertain the bioactivity of all compounds the inhibitory concentrations of 1–6 were measured against bacteria (Bacillus subtilis ATCC 6633 and Staphylococcus aureus ATCC 25923), yeasts (Candida albicans ATCC 10231 and Saccharomyces cerevisiae ATCC 9763), a protozoan (Tritrichomonas foetus), and mammalian cell lines (NS-1 mouse myeloma ATCC TIB-18 and NFF human neonatal foreskin fibroblast cells ATCC PCS-201). […] Given this selectivity, the IC50 values for each compound 1–5versus NS-1, NFF and DU145 human prostate cancer cell ATCC HTB-81 were ascertained by a resazurin-based assay (Table 2). […]
# (§2) 1.7. Assays for Biological Activity
# (§3) Purified metabolites (1 – 6) were dissolved in DMSO to provide stock solutions (1,000 µg/mL or 40 µg/mL). Bioassays were carried out in 96-well microtitre plates containing two-fold serial dilutions to yield ranges of 10 to 0.005 µg mL-1 or 0.4 to 0.0002 µg mL-1, in 1% DMSO. […]
# (§4) Antifungal assays were carried out using Candida albicans ATCC 10231 and Saccharomyces cerevisiae ATCC 9763 as indicative species for antifungal activity. A yeast suspension (50 mL in 250 mL flask) was prepared in malt extract broth (1.0 g L-1 bacteriological peptone (Bacto), 20.0 g L-1 malt extract […]
# (§5) (Bacto), 20 g L-1 glucose (Country Brewers)) by cultivation for 24 h at 250 rpm, 24 °C. The suspension was diluted to an absorbance of 0.005 and 0.03 absorbance units [ OD400] per mL for C. albicans and S. cerevisiae, respectively. Aliquots (20 µL and 30 µL) of C. albicans and S. cerevisiae, respectively were applied to the wells of a 96-well microtitre plate, which contained the test compounds dispersed in malt extract broth containing bromocresol green (50 µg mL-1). The plates were incubated at 24 °C for 48 h during which time the positive control wells change colour from a blue to yellow colour. MIC end points were determined visually. […]
# (§6) To assay antitumour activity, NS -1 ATCC TIB-18 mouse myeloma , DU145 prostate cancer cells (ATCC HTB-81), and NFF (ATCC PCS -201) human neonatal foreskin fibroblast cells were each
# [2] = system: Staphylococcus aureus ATCC 25923; experiment: Antibacterial assay, S. aureus; conditions: ATCC25923, 28 °C, 48 h, read visually
# Description: as §1, §2
# as §3, with “DMSO. Wells containing no test compound as a reference for no inhibition, and uninoculated wells were used as a reference for complete” for “DMSO.”
# (§7) Antibacterial assays were carried out using Bacillus subtilis ATCC 6633 and Staphylococcus aureus ATCC 25923 as indicative species for Gram-positive activity. A bacterial suspension (50 mL in 250 mL flask) was prepared in nutrient broth media (5.0 g L-1 bacteriological peptone (Bacto), 5.0 g L-1 NaCl (Chem-supply), 2.0 g L-1 yeast extract (Bacto), 1.0 g L-1 beef extract (Bacto)) by cultivation for 24 h at 250 rpm, 28 °C. The suspension was diluted to an absorbance of 0.01 absorbance units per mL [OD400 nm] and aliquots (10 µL) were added to the wells of a 96 -well microtitre plate containing the test compounds dispersed in nutrient broth with resazurin (12.5 µg mL-1). The plates were incubated at 28 °C for 48 h, during which time the positive control wells change colour from a blue to light pink colour. MICs were determined visually. […]
# [3] = system: Candida albicans ATCC 10231; experiment: Antifungal assay, C. albicans; conditions: ATCC10231, 24 °C, 48 h, read visually
# Description: as §1, §2, §3, §4, §5, §6
# [4] = system: NS-1 mouse myeloma ATCC TIB-18; experiment: Antitumour resazurin assay, NS-1 mouse myeloma cells; conditions: 96 h; for MIC, NS-1: NS-1 mouse myeloma ATCC TIB-18; for IC50: Mus musculus, read-out: IC50 ± 95% confidence interval, NS-1
# Description: as §1, §2, §3
# (§8) To assay antitumour activity, NS -1 ATCC TIB-18 mouse myeloma , DU145 prostate cancer cells (ATCC HTB-81), and NFF (ATCC PCS -201) human neonatal foreskin fibroblast cells were each inoculated in 96 -well microtitre plates (190 µL) at 50,000 cells mL-1 in DMEM (Dulbecco's Modified Eagle Medium + 10% v/v fetal bovine serum (FBS) + 1% v/v penicillin/streptomycin (10,000U mL-1/ 10,000 µg mL-1, Life Technologies Cat. No. 15140122), together with resazurin (250 µg/mL; 10 µL) and incubated at 37 °C (5% CO2). The plates were incubated for 96 h. Absorbance was measured using a Spectromax plate reader (Molecular Devices) at 605 nm for % inhibition, and IC50 values determined.
# [5] = system: Bacillus subtilis ATCC 6633; experiment: Antibacterial assay, B. subtilis; conditions: ATCC6633, 28 °C, 48 h, read visually
# Description: as §1, §2
# as §3, with “DMSO. Wells containing no test compound as a reference for no inhibition, and uninoculated wells were used as a reference for complete” for “DMSO.”
# as §7
# [6] = system: NFF human neonatal foreskin fibroblast cells ATCC PCS-201; experiment: Resazurin assay, NFF human neonatal foreskin fibroblast cells; conditions: for IC50: Homo sapiens, Fibroblast, read-out: IC50 ± 95% confidence interval, NFF; for IC50 / MIC, NFF: 96 h; for MIC, NFF: NFF human neonatal foreskin fibroblast ATCC PCS-201
# Description: as §1, §2, §3, §8
# [7] = system: DU145 human prostate cancer cell ATCC HTB-81; experiment: Antitumour resazurin assay, DU145 prostate cancer cells; conditions: DU-145, 96 h, read-out: IC50 ± 95% confidence interval, DU145
# Description: as §1, §2, §3, §8
# mammalian cell lines = experiment: Inhibitory activity against mammalian cell lines (summary across NS-1, DU145, NFF)
# Description: To ascertain the bioactivity of all compounds the inhibitory concentrations of 1–6 were measured against bacteria (Bacillus subtilis ATCC 6633 and Staphylococcus aureus ATCC 25923), yeasts (Candida albicans ATCC 10231 and Saccharomyces cerevisiae ATCC 9763), a protozoan (Tritrichomonas foetus), and mammalian cell lines (NS-1 mouse myeloma ATCC TIB-18 and NFF human neonatal foreskin fibroblast cells ATCC PCS-201). […] Given this selectivity, the IC50 values for each compound 1–5versus NS-1, NFF and DU145 human prostate cancer cell ATCC HTB-81 were ascertained by a resazurin-based assay (Table 2).
# as §5
# Cat. No. 15140122), 10% v/v new born calf serum (NBCS), Life Technologies). […] T. foetus proliferation was measured at 72 h . […]
Compound,MIC [1] [µg/mL],MIC [2] [µg/mL],MIC [3] [µg/mL],"MIC, NS-1 [4] [µg/mL]",MIC [5] [µg/mL],IC50 [6] [nM],"Activity, times lower than 1 against NFF ([6]; NFF) [times]","MIC, NFF [6] [µg/mL]",IC50 [7] [nM],IC50 [4] [nM],"IC50 values, times greater than those of 1 (mammalian cell lines; across cell lines)",Fold less effective than 1 (mammalian cell lines; depending on the cell line) [fold]
"CC[C@H](O)[C@@H](C)/C=C/C[C@H](C)/C=C/C=C(\C)[C@H]1OC(=O)C[C@H](O)CC[C@H](C)[C@@H](O)/C=C/[C@@H]1C [Compound 5, Δ18,19-6-deoxy-7-desacetylpladienolide B]",> 20,> 10,> 20,0.63,> 10,8100 ± 1800,> 600,10,,,,
"CC[C@H](O)[C@@H](C)/C=C/C[C@H](C)/C=C/C=C(\C)[C@H]1OC(=O)C[C@H](O)CC[C@@](C)(O)[C@@H](OC(C)=O)/C=C/[C@@H]1C [Compound 3, Δ18,19-pladienolide B]",> 20,> 10,> 20,0.05,> 10,319 ± 61,,0.6,96 ± 27,> 770,up to twenty-five,
"CC[C@H](O)[C@@H](C)[C@H]1O[C@@H]1C[C@H](C)/C=C/C=C(\C)[C@H]1OC(=O)C[C@H](O)CC[C@H](C)[C@@H](OC(C)=O)/C=C/[C@@H]1C [Compound 2, 6-deoxypladienolide B]",> 20,> 10,> 20,0.001,> 10,27 ± 14,,0.04,9.6 ± 5.8,40.3 ± 3.7,,≤ 8
"CC[C@@H]1O[C@@H](C[C@H](C)/C=C/C=C(\C)[C@H]2OC(=O)C[C@H](O)CC[C@@](C)(O)[C@@H](OC(C)=O)/C=C/[C@@H]2C)[C@H](O)[C@@H]1C [Compound 6, isopladienolide B]",> 20,> 10,> 20,0.08,> 10,,,1.25,,,,
"CC[C@H](O)[C@@H](C)[C@H]1O[C@@H]1C[C@H](C)/C=C/C=C(\C)[C@H]1OC(=O)C[C@H](O)CC[C@@](C)(O)[C@@H](OC(C)=O)/C=C/[C@@H]1C [Compound 1, pladienolide B]",> 20,> 10,> 20,0.001,> 10,13 ± 4.1,,0.013,7.5 ± 3.5,5.6 ± 0.6,,
"CC[C@H](O)[C@@H](C)/C=C/C[C@H](C)/C=C/C=C(\C)[C@H]1OC(=O)C[C@H](O)CC[C@H](C)[C@@H](OC(C)=O)/C=C/[C@@H]1C [Compound 4, Δ18,19-6-deoxypladienolide B]",> 20,> 10,> 20,0.1,> 10,> 790,,0.4,264 ± 79,> 790,,

# — PMC8163091, “Production of novel pladienolide analogues through native expression of a pathway-specific activator” (Chemical Science, 2020)
